Source: patent publication US20240261244A1, “METHODS FOR TREATING VIRAL INFECTIONS” (Daarsh Innovations, Inc., priority 2023, published 2024)

Test system: SARS Cov-2 virus
Assay type: cell-based
Conditions: 90 μL test solution + 10 μL virus (about 10^5 PFU/ml), 3 minutes contact at room temperature; plaque assay on Vero E6 cells

With `O=C(O)CN(CCN(CC(=O)O)CC(=O)O)CC(=O)O` [EDTA 5%, ethylenediaminetetraacetic acid] the “Residual Viral Load (Log PFU/0.1 ml)” value was 3.40 Log PFU/0.1 ml.
